Results taken from ChEMBL document CHEMBL4613271, “Application of Atypical Acetyl-lysine Methyl Mimetics in the Development of Selective Inhibitors of the Bromodomain-Containing Protein 7 (BRD7)/Bromodomain-Containing Protein 9 (BRD9) Bromodomains” (J Med Chem, 2020).
Converted amounts (≈) assume the structure as drawn. The source made the active and inactive calls. The calls are words filed in the database; no cut-off is given here.

How the values were obtained:
[1] = biological target: T1, Bromodomain-containing protein 7 (Homo sapiens, UniProt Q9NPI1); assay: Binding affinity to BRD7 (unknown origin)
T1 sequence (Q9NPI1 whole entry): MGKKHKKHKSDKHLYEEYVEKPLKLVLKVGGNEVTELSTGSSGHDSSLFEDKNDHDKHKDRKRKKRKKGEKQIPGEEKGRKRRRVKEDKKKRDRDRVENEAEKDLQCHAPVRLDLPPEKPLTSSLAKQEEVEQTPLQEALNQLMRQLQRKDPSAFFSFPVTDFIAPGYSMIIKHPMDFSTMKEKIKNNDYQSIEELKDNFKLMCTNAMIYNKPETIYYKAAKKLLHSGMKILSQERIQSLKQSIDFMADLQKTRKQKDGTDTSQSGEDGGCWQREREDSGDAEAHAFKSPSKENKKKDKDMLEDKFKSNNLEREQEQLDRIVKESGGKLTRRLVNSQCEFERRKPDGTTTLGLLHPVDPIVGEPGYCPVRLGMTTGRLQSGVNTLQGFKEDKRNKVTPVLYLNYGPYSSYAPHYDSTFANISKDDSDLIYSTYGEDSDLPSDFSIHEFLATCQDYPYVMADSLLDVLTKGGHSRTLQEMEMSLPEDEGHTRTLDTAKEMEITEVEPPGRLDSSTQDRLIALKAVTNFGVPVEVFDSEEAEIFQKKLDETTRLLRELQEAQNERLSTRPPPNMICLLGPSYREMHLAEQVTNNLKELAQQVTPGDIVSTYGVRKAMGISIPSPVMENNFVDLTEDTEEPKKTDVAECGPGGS

[2] = biological target: T2, Bromodomain-containing protein 9 (Homo sapiens, UniProt Q9H8M2)
T2 sequence (Q9H8M2 whole entry): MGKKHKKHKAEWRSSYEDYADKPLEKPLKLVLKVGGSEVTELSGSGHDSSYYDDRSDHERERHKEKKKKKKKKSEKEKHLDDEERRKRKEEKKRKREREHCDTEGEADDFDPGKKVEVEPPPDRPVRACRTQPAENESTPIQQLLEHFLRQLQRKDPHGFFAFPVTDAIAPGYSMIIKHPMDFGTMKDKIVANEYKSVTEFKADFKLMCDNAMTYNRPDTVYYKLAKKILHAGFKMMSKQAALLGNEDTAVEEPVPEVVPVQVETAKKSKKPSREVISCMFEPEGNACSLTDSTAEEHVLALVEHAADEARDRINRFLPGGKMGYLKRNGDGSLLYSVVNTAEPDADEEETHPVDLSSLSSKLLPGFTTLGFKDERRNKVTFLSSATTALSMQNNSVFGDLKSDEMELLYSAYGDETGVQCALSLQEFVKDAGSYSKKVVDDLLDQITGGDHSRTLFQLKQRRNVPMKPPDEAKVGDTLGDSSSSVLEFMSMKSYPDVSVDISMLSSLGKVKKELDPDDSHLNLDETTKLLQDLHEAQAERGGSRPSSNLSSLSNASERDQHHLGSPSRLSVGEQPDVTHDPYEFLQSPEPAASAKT

[3] = biological target: T1, Bromodomain-containing protein 7; assay: Binding affinity to human partial length BRD7 (L125 to R254 residues) expressed in mammalian expression system by BROMOscan assay
[4] = biological target: T3, Peregrin (Homo sapiens, UniProt P55201); assay: Binding affinity to human partial length BRPF1 (E627 to G740 residues) expressed in bacterial expression system by BROMOscan assay
T3 sequence (P55201 whole entry): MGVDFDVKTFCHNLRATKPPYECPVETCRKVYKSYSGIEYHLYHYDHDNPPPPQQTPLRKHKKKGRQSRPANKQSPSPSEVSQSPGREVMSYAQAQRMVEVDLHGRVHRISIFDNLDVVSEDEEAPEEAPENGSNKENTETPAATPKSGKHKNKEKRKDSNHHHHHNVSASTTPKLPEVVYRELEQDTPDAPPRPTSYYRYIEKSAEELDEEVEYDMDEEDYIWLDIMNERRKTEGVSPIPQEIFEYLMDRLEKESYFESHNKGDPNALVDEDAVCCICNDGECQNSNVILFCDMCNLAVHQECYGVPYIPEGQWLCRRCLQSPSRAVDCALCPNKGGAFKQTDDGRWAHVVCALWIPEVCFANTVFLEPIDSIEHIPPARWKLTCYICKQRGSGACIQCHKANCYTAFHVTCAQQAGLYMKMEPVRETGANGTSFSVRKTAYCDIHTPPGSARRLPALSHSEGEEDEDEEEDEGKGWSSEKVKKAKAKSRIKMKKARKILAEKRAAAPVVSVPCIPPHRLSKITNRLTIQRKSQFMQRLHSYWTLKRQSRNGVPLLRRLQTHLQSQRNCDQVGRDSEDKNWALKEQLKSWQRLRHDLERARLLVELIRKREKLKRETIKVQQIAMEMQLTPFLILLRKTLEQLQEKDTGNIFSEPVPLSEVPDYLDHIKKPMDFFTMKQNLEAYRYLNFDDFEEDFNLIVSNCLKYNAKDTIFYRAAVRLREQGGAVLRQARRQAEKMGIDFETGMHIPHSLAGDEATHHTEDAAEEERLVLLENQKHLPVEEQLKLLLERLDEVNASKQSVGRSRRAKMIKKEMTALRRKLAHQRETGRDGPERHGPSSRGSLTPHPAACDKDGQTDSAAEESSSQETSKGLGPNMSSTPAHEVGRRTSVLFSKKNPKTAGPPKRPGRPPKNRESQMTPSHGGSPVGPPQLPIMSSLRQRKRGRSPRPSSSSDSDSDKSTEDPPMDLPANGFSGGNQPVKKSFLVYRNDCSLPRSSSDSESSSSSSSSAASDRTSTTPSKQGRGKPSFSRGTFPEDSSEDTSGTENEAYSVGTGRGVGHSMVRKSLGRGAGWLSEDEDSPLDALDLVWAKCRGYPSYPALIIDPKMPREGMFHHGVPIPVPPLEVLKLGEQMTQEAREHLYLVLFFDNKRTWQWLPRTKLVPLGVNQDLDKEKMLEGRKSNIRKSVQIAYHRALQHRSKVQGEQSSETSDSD

[5] = Drug distribution in human HeLa cells assessed as intracellular influx/efflux ratio by mass spectrometry; type: ADME, cell-based
[6] = biological target: T4, Bromodomain-containing protein 4 (Homo sapiens, UniProt O60885); assay: Binding affinity to human partial length BRD4 (1) (N44 to E168 residues) expressed in bacterial expression system by BROMOscan assay
[7] = Permeability by PAMPA; type: ADME; conditions: read-out: permeability
[8] = Solubility of compound by CLND method; type: physicochemical
[9] = Chromatographic hydrophobicity index, logD of the compound at pH 7.4 by HPLC analysis; type: physicochemical; conditions: buffer
[10] = biological target: T2, Bromodomain-containing protein 9; remark: listed apart in the source
Description: Binding affinity to human partial length BRD9 (R130 to V259 residues) expressed in bacterial expression system by BROMOscan assay

[11] = biological target: T5, Bromodomain-containing protein 7 (Homo sapiens) (UniProt Q9NPI1); assay: Binding affinity to BRD7 in human HuT78 cells nuclear and chromatin extracts at 10 uM incubated for 45 mins by mass spectrometry based chemoproteomic binding assay; type: cell-based
T5 sequence (whole entry): T1 sequence (Q9NPI1 whole entry)

[12] = biological target: Protein polybromo-1 (Homo sapiens) (UniProt Q86U86); assay: Binding affinity to PBRM1 in human HuT78 cells nuclear and chromatin extracts at 10 uM incubated for 45 mins by mass spectrometry based chemoproteomic binding assay; type: cell-based
Sequence of Protein polybromo-1 (Homo sapiens) (Q86U86 whole entry): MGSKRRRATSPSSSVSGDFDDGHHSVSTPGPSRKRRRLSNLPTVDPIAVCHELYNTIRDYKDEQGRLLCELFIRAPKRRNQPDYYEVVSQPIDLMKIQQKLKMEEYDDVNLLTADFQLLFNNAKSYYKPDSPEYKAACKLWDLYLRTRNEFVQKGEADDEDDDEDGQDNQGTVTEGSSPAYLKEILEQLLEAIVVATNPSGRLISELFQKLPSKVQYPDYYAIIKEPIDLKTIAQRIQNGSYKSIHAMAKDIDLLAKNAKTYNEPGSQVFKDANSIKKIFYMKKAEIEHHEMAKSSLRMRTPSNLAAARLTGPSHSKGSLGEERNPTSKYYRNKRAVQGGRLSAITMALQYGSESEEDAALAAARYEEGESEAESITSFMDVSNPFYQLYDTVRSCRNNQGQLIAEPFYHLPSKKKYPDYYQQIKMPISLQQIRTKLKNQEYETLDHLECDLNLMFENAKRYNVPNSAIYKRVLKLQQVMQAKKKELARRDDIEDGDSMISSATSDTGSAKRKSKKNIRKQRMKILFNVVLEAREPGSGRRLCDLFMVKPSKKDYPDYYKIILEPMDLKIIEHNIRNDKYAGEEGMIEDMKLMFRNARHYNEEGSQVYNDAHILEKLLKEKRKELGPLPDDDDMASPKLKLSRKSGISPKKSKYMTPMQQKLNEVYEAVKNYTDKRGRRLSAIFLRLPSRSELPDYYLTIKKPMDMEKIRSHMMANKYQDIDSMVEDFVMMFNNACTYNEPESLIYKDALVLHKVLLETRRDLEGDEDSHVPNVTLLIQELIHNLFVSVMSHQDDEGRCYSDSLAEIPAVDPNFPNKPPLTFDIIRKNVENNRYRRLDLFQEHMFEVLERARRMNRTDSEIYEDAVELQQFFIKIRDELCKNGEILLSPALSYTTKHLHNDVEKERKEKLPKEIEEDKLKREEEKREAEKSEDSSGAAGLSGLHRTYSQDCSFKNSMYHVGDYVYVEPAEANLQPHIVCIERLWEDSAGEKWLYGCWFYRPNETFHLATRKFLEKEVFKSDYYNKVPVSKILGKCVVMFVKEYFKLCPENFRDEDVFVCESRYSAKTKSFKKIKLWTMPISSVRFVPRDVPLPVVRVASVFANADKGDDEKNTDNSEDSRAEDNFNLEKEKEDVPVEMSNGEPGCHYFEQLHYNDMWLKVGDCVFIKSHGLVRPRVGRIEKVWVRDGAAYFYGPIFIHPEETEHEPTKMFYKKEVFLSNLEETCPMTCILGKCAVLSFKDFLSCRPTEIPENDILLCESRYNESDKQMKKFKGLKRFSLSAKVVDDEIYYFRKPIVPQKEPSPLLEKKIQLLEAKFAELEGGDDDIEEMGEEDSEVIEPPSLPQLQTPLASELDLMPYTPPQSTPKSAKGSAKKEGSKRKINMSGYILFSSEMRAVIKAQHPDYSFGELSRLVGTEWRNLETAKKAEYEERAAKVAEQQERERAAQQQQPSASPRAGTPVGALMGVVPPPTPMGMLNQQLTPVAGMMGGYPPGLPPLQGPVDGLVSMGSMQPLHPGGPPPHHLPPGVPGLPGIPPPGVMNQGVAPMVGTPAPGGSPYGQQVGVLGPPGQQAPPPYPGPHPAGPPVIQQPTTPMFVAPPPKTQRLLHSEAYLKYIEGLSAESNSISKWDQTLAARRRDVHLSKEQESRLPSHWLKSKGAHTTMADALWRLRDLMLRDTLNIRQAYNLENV

[13] = biological target: T2, Bromodomain-containing protein 9; assay: Binding affinity to BRD9 (unknown origin) N-terminal bromodomain by TR-FRET assay
[14] = organism: Homo sapiens; assay: Selectivity index, ratio of IC50 for binding affinity to BRD4 (1) (unknown origin) N-terminal bromodomain to IC50 for binding affinity to BRD9 (unknown origin) N-terminal bromodomain
[15] = biological target: B-cell CLL/lymphoma 7 protein family member A (Homo sapiens) (UniProt Q4VC05); assay: Binding affinity to BCL7A in human HuT78 cells nuclear and chromatin extracts at 10 uM incubated for 45 mins by mass spectrometry based chemoproteomic binding assay; type: cell-based
Sequence of B-cell CLL/lymphoma 7 protein family member A (Homo sapiens) (Q4VC05 whole entry): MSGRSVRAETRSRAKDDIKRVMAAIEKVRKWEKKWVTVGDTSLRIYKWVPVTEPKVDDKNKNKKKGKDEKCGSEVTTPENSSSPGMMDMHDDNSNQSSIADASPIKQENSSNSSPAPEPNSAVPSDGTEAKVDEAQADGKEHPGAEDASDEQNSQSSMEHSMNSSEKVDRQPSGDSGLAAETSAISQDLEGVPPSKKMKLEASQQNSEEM

[16] = biological target: T4, Bromodomain-containing protein 4; assay: Binding affinity to BRD4 (1) (unknown origin) N-terminal bromodomain by TR-FRET assay
[17] = biological target: SWI/SNF-related matrix-associated actin-dependent regulator of chromatin subfamily A member 4 (Homo sapiens) (UniProt P51532); assay: Binding affinity to SMARCA4 in human HuT78 cells nuclear and chromatin extracts at 10 uM incubated for 45 mins by mass spectrometry based chemoproteomic binding assay; type: cell-based
Sequence of SWI/SNF-related matrix-associated actin-dependent regulator of chromatin subfamily A member 4 (Homo sapiens) (P51532 whole entry): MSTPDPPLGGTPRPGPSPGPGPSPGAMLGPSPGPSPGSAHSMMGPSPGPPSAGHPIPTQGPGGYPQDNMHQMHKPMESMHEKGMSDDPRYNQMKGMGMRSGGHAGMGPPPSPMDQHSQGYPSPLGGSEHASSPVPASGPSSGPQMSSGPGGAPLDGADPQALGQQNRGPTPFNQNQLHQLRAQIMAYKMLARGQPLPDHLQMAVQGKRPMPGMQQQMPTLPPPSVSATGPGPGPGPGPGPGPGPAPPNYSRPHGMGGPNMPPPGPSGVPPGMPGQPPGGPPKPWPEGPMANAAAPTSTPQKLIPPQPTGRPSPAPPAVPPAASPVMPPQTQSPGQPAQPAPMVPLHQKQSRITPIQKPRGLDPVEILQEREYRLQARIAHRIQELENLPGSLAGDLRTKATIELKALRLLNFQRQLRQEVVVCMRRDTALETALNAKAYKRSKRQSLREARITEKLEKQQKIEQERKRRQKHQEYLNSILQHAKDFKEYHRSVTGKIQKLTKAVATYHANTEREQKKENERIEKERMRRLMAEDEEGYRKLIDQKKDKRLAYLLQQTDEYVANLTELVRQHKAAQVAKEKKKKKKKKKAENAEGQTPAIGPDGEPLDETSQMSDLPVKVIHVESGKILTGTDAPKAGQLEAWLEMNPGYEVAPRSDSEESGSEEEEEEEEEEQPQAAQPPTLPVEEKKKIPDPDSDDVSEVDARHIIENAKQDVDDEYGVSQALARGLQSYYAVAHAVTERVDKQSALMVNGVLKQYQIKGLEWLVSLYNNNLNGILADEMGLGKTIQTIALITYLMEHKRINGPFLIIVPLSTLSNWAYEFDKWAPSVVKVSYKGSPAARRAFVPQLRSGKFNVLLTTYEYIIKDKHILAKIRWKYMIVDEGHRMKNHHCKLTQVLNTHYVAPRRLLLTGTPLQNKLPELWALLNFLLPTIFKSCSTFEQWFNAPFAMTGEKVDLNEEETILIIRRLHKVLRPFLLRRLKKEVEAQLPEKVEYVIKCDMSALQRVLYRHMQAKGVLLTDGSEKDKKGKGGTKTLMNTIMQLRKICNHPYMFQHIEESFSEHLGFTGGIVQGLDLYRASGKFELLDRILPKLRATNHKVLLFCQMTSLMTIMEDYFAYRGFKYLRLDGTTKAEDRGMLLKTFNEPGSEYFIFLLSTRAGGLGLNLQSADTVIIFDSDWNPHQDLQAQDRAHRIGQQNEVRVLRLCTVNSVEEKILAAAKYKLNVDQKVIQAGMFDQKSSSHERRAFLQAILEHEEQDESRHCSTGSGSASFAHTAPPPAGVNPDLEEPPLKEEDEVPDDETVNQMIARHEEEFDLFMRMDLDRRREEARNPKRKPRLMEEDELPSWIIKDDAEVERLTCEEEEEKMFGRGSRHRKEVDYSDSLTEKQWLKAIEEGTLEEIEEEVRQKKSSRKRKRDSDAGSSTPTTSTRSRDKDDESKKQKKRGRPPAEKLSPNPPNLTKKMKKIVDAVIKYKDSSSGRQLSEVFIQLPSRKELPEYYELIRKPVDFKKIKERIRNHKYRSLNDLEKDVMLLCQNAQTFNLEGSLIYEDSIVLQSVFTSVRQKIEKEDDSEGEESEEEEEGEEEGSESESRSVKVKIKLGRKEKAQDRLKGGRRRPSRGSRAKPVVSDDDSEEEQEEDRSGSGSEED

[18] = biological target: SWI/SNF-related matrix-associated actin-dependent regulator of chromatin subfamily A member 2 (Homo sapiens) (UniProt P51531); assay: Binding affinity to SMARCA2 in human HuT78 cells nuclear and chromatin extracts at 10 uM incubated for 45 mins by mass spectrometry based chemoproteomic binding assay; type: cell-based
[19] = biological target: B-cell CLL/lymphoma 7 protein family member B (Homo sapiens) (UniProt Q9BQE9); assay: Binding affinity to BCL7B in human HuT78 cells nuclear and chromatin extracts at 10 uM incubated for 45 mins by mass spectrometry based chemoproteomic binding assay; type: cell-based
Sequence of B-cell CLL/lymphoma 7 protein family member B (Homo sapiens) (Q9BQE9 whole entry): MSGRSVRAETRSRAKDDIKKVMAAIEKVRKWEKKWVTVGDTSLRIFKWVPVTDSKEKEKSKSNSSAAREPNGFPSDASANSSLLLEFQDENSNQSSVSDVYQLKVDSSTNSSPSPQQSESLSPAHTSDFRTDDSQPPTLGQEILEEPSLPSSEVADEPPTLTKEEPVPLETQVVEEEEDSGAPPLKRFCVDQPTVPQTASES

Kd [1]	Kd [2]	Activity [11]	Activity [12]	IC50 [13]	fold selectivity [14]	Activity [15]	IC50 [16]	Activity [17]	Activity [18]	Activity [19]	SMILES	Ki [3]	Ki [4]	Ratio [5]	Ki [6]	Papp [7]	solubility kinetic [8]	chromatographic logD [9]	Ki [10]
100 nM	2 nM										C/C=C/Cn1cc(-c2cc(OC)c(C(=O)N3CCOCC3)cc2OC)c2cc[nH]c2c1=O								
											CCCCc1c(NCc2ccccc2N2CCN(C)CC2)cnn(C)c1=O	501 nM	> 31600 nM	0.52	> 31600 nM	25 ×10⁻⁶ cm/s	≥ 228 µg/mL	3.5	63.1 nM
		Active	Active	200 nM	> 250	Active	> 50100 nM	Active	Active	Active	Cc1c(NCc2ccccc2N2CCN(C)CC2)cnn(C)c1=O	25.1 nM	251 nM		25100 nM	33 ×10⁻⁶ cm/s	178 µg/mL (≈ 544 µM)	1.6	39.8 nM
